Laboratory results from US10829520B2, “Beta-hairpin peptidomimetics” (POLYPHOR AG, priority 2015, dated 2020).
Where a SMILES comes first, the peptide text is derived from it. Bridges are numbered along the chain shown (N, C = ends). [ ]: non-standard residue; d: D form. NMeW = CN[C@@H](Cc1c[nH]c2ccccc12)C(=O)O; Tle = CC(C)(C)[C@H](N)C(=O)O; dDab = NCC[C@@H](N)C(=O)O; Orn = NCCC[C@H](N)C(=O)O; Dab = NCC[C@H](N)C(=O)O; dAze = O=C(O)[C@H]1CCN1; Sar = CNCC(=O)O

What was measured:
Assay type in all cases: cell-based
[1] = system: human red blood cells (hRBC); assay: Hemolysis of human red blood cells; details: red cells of human, 1 h
Outline: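 Washed fresh human erythrocytes (20% v/v, ~0.9×10^9 cells/mL final) were incubated with peptides at 100 μg/mL for 1 h at 37 °C with shaking. Supernatant OD540 measured; hemolysis expressed as % of 2.5% Triton X-100 lysis, with PBS/0.001% acetic acid as 0%.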

[2] = system: Acinetobacter baumannii DSM 30008; details: DSM 30008
Outline: (§1)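 Using the CLSI reference method, each strain at approx. 10^6 CFU/mL was exposed to serially diluted peptide in MH-II broth with 0.002% P-80. After 18-20 h at 35° C, the lowest concentration showing no visible growth gave the MIC.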

[3] = system: Escherichia coli ATCC 25922; details: ATCC 25922
Outline: as §1

[4] = system: Klebsiella pneumoniae SSI #3010; details: SSI #3010
Outline: as §1

[5] = system: Pseudomonas aeruginosa ATCC 27853; details: ATCC 27853
Outline: as §1

[6] = system: Klebsiella pneumoniae 968733; details: 968733
[7] = system: Acinetobacter baumannii 872842; details: 872842
Escherichia coli 926415 = details: 926415

| SMILES | Hemolysis at 100 μg/mL [1]; 100 | Acinetobacter baumannii DSM 30008 MIC [2] | Escherichia coli ATCC 25922 MIC [3] | Klebsiella pneumoniae SSI #3010 MIC [4] | Pseudomonas aeruginosa ATCC 27853 MIC [5] | Klebsiella pneumoniae 968733 MIC [6] | Acinetobacter baumannii 872842 MIC [7] | Escherichia coli 926415 MIC (Escherichia coli 926415) | Hemolysis at 100 μg/mL ([1]; 100 μg/mL) |
| --- | --- | --- | --- | --- | --- | --- | --- | --- | --- |
| CN[C@@H](Cc1c[nH]c2ccccc12)C(=O)N[C@@H](CCN)C(=O)N[C@H](C(=O)N[C@H]1CC(=O)NCC[C@@H](C(=O)N[C@@H](Cc2ccc(O)cc2)C(=O)N[C@@H](CCN)C(=O)N(C)CC(=O)N[C@@H](CCN)C(=O)N[C@H](C(=O)N[C@@H](CCN)C(=O)N[C@H]2CCNC(=O)[C@H]([C@@H](C)O)NC(=O)[C@H](CCN)NC(=O)[C@H](CCN)NC(=O)[C@H](CC(C)C)NC(=O)[C@@H](CC(C)C)NC(=O)[C@H](CCN)NC2=O)[C@@H](C)O)NC(=O)[C@H](C(C)C)NC(=O)[C@@H]2CCCN2C(=O)[C@H]2CCN2C(=O)[C@H]([C@@H](C)O)NC1=O)C(C)(C)C [Ex. 176] (H-[NMeW][Dab][Tle]DT[dAze]PV[Dab]Y[Dab][Sar][Dab]T[Dab][Dab][Dab][dL]L[Dab][Dab]T; lactam 4-9, 16-C) | <1% | 0.03125 µg/mL | 0.03125 µg/mL | 0.0625 µg/mL | 0.25 µg/mL | 0.25 µg/mL | 0.5 µg/mL | 0.0625 µg/mL | – |
| CC(C)C[C@@H]1NC(=O)[C@@H](Cc2ccccc2)NC(=O)[C@H](CCN)NC(=O)[C@@H](NC(=O)[C@H](CCN)NC(=O)[C@@H](CCN)NC(=O)[C@@H](NC(=O)[C@H](CCCN)NC(=O)[C@@H]2CSSC[C@H](NC(=O)[C@@H](N)Cc3c[nH]c4ccccc34)C(=O)N[C@@H](C(C)C)C(=O)N[C@@H](C)C(=O)N[C@@H](CO)C(=O)N3CCC[C@@H]3C(=O)N3CCC[C@H]3C(=O)N[C@@H](C(C)C)C(=O)N[C@@H](CO)C(=O)N[C@@H](Cc3ccc(O)cc3)C(=O)N2)[C@@H](C)O)CCNC(=O)[C@H]([C@@H](C)O)NC(=O)[C@H](CCNC(=O)[C@@H](N)CCCNC(=N)N)NC(=O)[C@H](CCN)NC1=O [Ex. 177] (H-WCVAS[dP]PVSYC[Orn]T[dDab][Dab][Dab][Dab][dF]L[Dab][Dab](Arg)T; disulfide 2-11; lactam 16-C) | – | 1 µg/mL | 1 µg/mL | 1 µg/mL | 0.5 µg/mL | 2 µg/mL | 2 µg/mL | 2 µg/mL | 1.4% |
| CC(C)C[C@@H]1NC(=O)[C@@H](CC(C)C)NC(=O)[C@H](CCN)NC(=O)[C@@H](NC(=O)[C@H](CCN)NC(=O)[C@@H](NC(=O)[C@H](CCN)NC(=O)CN(C)C(=O)[C@@H]2CSSC[C@H](NC(=O)[C@@H](N)Cc3c[nH]c4ccccc34)C(=O)N[C@@H](C(C)C)C(=O)N[C@@H](C)C(=O)N[C@@H](CO)C(=O)N3CCC[C@@H]3C(=O)N3CCC[C@H]3C(=O)N[C@@H](CC(C)C)C(=O)N[C@@H](CO)C(=O)N[C@@H](Cc3ccc(O)cc3)C(=O)N2)[C@@H](C)O)CCNC(=O)[C@@H]([C@H](C)O)NC(=O)[C@H](CCN)NC(=O)[C@H](CCN)NC1=O [Ex. 178] (H-WCVAS[dP]PLSYC[Sar][Dab]T[Dab][Dab][Dab][dL]L[Dab][Dab][dT]; disulfide 2-11; lactam 16-C) | – | 1 µg/mL | 0.5 µg/mL | 0.5 µg/mL | 4 µg/mL | 8 µg/mL | 2 µg/mL | 1 µg/mL | <1% |
| CC(C)C[C@@H]1NC(=O)[C@@H](CC(C)C)NC(=O)[C@H](CCN)NC(=O)[C@@H](NC(=O)[C@H](CCN)NC(=O)[C@@H](NC(=O)[C@H](CCN)NC(=O)CN(C)C(=O)[C@@H]2CSSC[C@H](NC(=O)[C@@H](N)Cc3c[nH]c4ccccc34)C(=O)N[C@@H](C(C)C)C(=O)N[C@@H](C)C(=O)N[C@@H](CO)C(=O)N3CCC[C@@H]3C(=O)N3CCC[C@H]3C(=O)N[C@@H](CC(C)C)C(=O)N[C@@H](CO)C(=O)N[C@@H](Cc3ccc(O)cc3)C(=O)N2)[C@@H](C)O)CCNC(=O)[C@H](C(C)C)NC(=O)[C@H](CCN)NC(=O)[C@H](CCN)NC1=O [Ex. 179] (H-WCVAS[dP]PLSYC[Sar][Dab]T[Dab][Dab][Dab][dL]L[Dab][Dab]V; disulfide 2-11; lactam 16-C) | – | 0.0625 µg/mL | 0.0625 µg/mL | 0.125 µg/mL | 1 µg/mL | 0.5 µg/mL | 0.0625 µg/mL | 0.125 µg/mL | <1% |
| CNCC(=O)N[C@@H](Cc1c[nH]c2ccccc12)C(=O)N[C@H]1CSSC[C@@H](C(=O)N(C)CC(=O)N[C@H](C(=O)N[C@@H](CCN)C(=O)N[C@@H](CCN)C(=O)N[C@H]2CCNC(=O)[C@H]([C@@H](C)O)NC(=O)[C@H](CCN)NC(=O)[C@H](CCN)NC(=O)[C@H](CC(C)C)NC(=O)[C@@H](CC(C)C)NC(=O)[C@H](CCN)NC2=O)[C@@H](C)O)NC(=O)[C@H](Cc2ccc(O)cc2)NC(=O)[C@H](CO)NC(=O)[C@H](CC(C)C)NC(=O)[C@@H]2CCCN2C(=O)[C@H]2CCCN2C(=O)[C@H](CO)NC(=O)[C@H](C)NC(=O)[C@H](C(C)C)NC1=O [Ex. 184] (H-[Sar]WCVAS[dP]PLSYC[Sar]T[Dab][Dab][Dab][Dab][dL]L[Dab][Dab]T; disulfide 3-12; lactam 17-C) | – | 0.5 µg/mL | 0.5 µg/mL | 0.5 µg/mL | 0.75 µg/mL | 1 µg/mL | 1 µg/mL | 1 µg/mL | <1% |
| CNCC(=O)N[C@@H](Cc1c[nH]c2ccccc12)C(=O)N[C@H]1CSSC[C@@H](C(=O)N(C)CC(=O)N[C@@H](CCN)C(=O)N[C@H](C(=O)N[C@@H](CCN)C(=O)N[C@H]2CCNC(=O)[C@H]([C@@H](C)O)NC(=O)[C@H](CCN)NC(=O)[C@H](CCN)NC(=O)[C@H](CC(C)C)NC(=O)[C@@H](CC(C)C)NC(=O)[C@H](CCN)NC2=O)[C@@H](C)O)NC(=O)[C@H](Cc2ccc(O)cc2)NC(=O)[C@H](CO)NC(=O)[C@H](CC(C)C)NC(=O)[C@@H]2CCCN2C(=O)[C@H]2CCCN2C(=O)[C@H](CCN)NC(=O)[C@H](C)NC(=O)[C@H](C(C)C)NC1=O [Ex. 185] (H-[Sar]WCVA[Dab][dP]PLSYC[Sar][Dab]T[Dab][Dab][Dab][dL]L[Dab][Dab]T; disulfide 3-12; lactam 17-C) | – | 0.25 µg/mL | 0.25 µg/mL | 1 µg/mL | 1 µg/mL | 8 µg/mL | 1 µg/mL | 2 µg/mL | 1% |
| CNCC(=O)N[C@@H](CC(C)C)C(=O)N[C@H]1CSSC[C@@H](C(=O)N(C)CC(=O)N[C@@H](CCN)C(=O)N[C@H](C(=O)N[C@@H](CCN)C(=O)N[C@H]2CCNC(=O)[C@H]([C@@H](C)O)NC(=O)[C@H](CCN)NC(=O)[C@H](CCN)NC(=O)[C@H](CC(C)C)NC(=O)[C@@H](CC(C)C)NC(=O)[C@H](CCN)NC2=O)[C@@H](C)O)NC(=O)[C@H](Cc2ccc(O)cc2)NC(=O)[C@H](CO)NC(=O)[C@H](CC(C)C)NC(=O)[C@@H]2CCCN2C(=O)[C@H]2CCCN2C(=O)[C@H](Cc2ccc(O)cc2)NC(=O)[C@H](C)NC(=O)[C@H](C(C)C)NC1=O [Ex. 186] (H-[Sar]LCVAY[dP]PLSYC[Sar][Dab]T[Dab][Dab][Dab][dL]L[Dab][Dab]T; disulfide 3-12; lactam 17-C) | – | 0.1251 µg/mL | 0.125 µg/mL | 0.125 µg/mL | 0.25 µg/mL | 0.5 µg/mL | 0.0625 µg/mL | 0.25 µg/mL | <1% |
| CNCC(=O)N[C@@H](Cc1c[nH]c2ccccc12)C(=O)N[C@H]1CSSC[C@@H](C(=O)N(C)CC(=O)N[C@@H](CCN)C(=O)N[C@H](C(=O)N[C@@H](CCN)C(=O)N[C@H]2CCNC(=O)[C@H]([C@@H](C)O)NC(=O)[C@H](CCNC(=O)[C@@H](N)CCCNC(=N)N)NC(=O)[C@H](CCN)NC(=O)[C@H](CC(C)C)NC(=O)[C@@H](CC(C)C)NC(=O)[C@H](CCN)NC2=O)[C@@H](C)O)NC(=O)[C@H](Cc2ccc(O)cc2)NC(=O)[C@H](CO)NC(=O)[C@H](CC(C)C)NC(=O)[C@@H]2CCCN2C(=O)[C@H]2CCCN2C(=O)[C@H](CO)NC(=O)[C@H](C)NC(=O)[C@H](C(C)C)NC1=O [Ex. 187] (H-[Sar]WCVAS[dP]PLSYC[Sar][Dab]T[Dab][Dab][Dab][dL]L[Dab][Dab](Arg)T; disulfide 3-12; lactam 17-C) | – | 0.125 µg/mL | 0.125 µg/mL | 0.125 µg/mL | 1 µg/mL | 1 µg/mL | 1 µg/mL | 2 µg/mL | <1% |
